Data set [1] concerns 293T cells stably expressing SERCaMP. The data set can be described thus: SERCaMP secretion (GLuc luciferase) assay of ER calcium depletion induced by thapsigargin. It is filed as cell-based, human. On the procedure:
FIG. 11A-FIG. 11B. SERCaMP secretion is specifically triggered by ER calcium depletion. 293T cells stably expressing (A) SERCaMP or (B) control GLuc-STOP were treated with 0.1 μM TG or DMSO, for varying durations. Luciferase activity was measured in the medium (mean±SD, n=3) and normalized to the respective baseline. **P<0.01 by t-test.
RyR expression was next examined at the protein level. […] Since it has been shown that RyR2 isoform is present in the rabbit kidney cortex and its activity is modulated by phosphorylation of the channel, phosphorylation of RyR2 at Ser2808 was further examined. […] It has been shown that the carboxy-terminal sequence of an ER stress protein MANF (mesencephalic astrocyte-derived neurotrophic factor), ASARTDL (SEQ ID NO: 3), is sufficient to specifically confer ER calcium-depletion-dependent secretion. […] When human embryonic kidney (HEK) 293T cells stably expressing SERCaMP or control GLuc-STOP without the ASARTDL tag were treated with DMSO or 0.1 μM thapsigargin (TG), a SERCA inhibitor causing ER calcium depletion for 6 hours, SERCaMP secretion, as measured by luciferase activity in the cell culture medium, was increased in response to ER calcium depletion induced by TG (see e.g., FIG. 11A and FIG. 11B).

The subject of data set [2] is Tg-C321R primary podocytes. Nature of the data set: Annexin V-FITC/PI flow cytometry of early apoptosis. The class given is cell-based, mouse. On the procedure: Apoptotic cell death was measured by FITC Annexin V/PI apoptosis detection kit (BD Biosciences) according to the manufacturer's protocol. […] The untreated- and treated-podocytes were harvested, washed with cold PBS twice, resuspended in binding buffer, and stained with Annexin V-FITC and PI in dark at room temperature for 15 minutes. After incubation, binding buffer was added, and the podocytes were analyzed by flow cytometer Calibur 3 (BD Biosciences). Unstained cells, cells stained with FITC-Annexin V or PI alone were used as controls to set up compensation and quadrants in flow cytometry. The results were analyzed by Cell Quest program.

The subject of a further data set is Tg-C321R mice. The data set can be described thus: K201 treatment of podocyte ER stress-induced NS mouse model (urinary calpain, albuminuria, BUN). The class given is in vivo. The settings on record: for albuminuria: K201 12.5-15 mg/kg i.p. On the procedure:
Urinary calpain activity was measured by Calpain-Glo™ Protease Assay (Promega, Madison, Wis.). In brief, urines were incubated with calpain substrate (Succinyl-LLVY-aminoluciferin). Following cleavage of substrate by calpain, the substrate for luciferase (aminoluciferin) was released, allowing the luciferase reaction to occur and luminescence to be detected by Femtomaster FB12 Luminometer. The actual values of raw light units were normalized by urine Cr for each group.
(§1) BUN was measured by using a QuantiChrom™ urea assay kit (DIUR-500) (BioAssay Systems, Hayward, Calif.).
Mouse urines were collected by manual restraint or using a metabolic cage. The mouse urines were centrifuged at 1800 g for 10 minutes to remove debris before being frozen at −70° C. Urinary Cr concentration was quantified by a QuantiChrom™ creatinine assay kit (DICT-500) (BioAssay Systems) and albuminuria was measured by a QuantiChrom™ BCG albumin assay kit (DIAG-250) (BioAssay Systems).

Another data set relates to procaspases 12 and 3. The data set can be described thus: Western blot of cleaved caspase 12 and caspase 3 in podocyte lysates. The class given is cell-based, mouse. Conditions: Tg-C321R podocytes. On the procedure: (§2) Mouse primary podocytes and isolated glomeruli were lysed by RIPA buffer (Cell signaling) containing protease inhibitor cocktail (Sigma-Aldrich) and phosphatase inhibitor tablets (Roche, Indianapolis, Ind.). The protein concentrations of cell and glomerular lysates were determined by Bio-Rad Protein assay (Hercules, Calif.) using BSA as a standard. Denatured proteins were separated on SDS-polyacrylamide gels and then transferred to polyvinylidene difluoride membranes (Thermo Scientific). The membranes were blocked with 5% non-fat milk for 1 h and then incubated overnight with primary antibodies. Following incubation, membranes were washed with 0.1% Tris-buffered saline/Tween buffer and incubated with the appropriate HRP-conjugated secondary antibodies. The proteins were then detected using ECLplus kit (GE, Pittsburgh, Pa.) and visualized in an x-ray developer. To ensure equal protein loading, the same blot was stripped with stripping buffer (25 mM glycine and 1% SDS, pH 2.0) and then incubated with an HRP-conjugated anti-mouse β-actin antibody. Protein band intensities were quantified using Image J software (NIH, Bethesda, Md.).
(In general: A western blot detects proteins with antibodies after separation by electrophoresis.)

Data set [3] concerns Tg-C321R primary podocytes. The data set can be described thus: Cytosolic calcium levels measured by Fluo-4 AM. It is filed as cell-based, mouse. On the procedure: The cytosolic Ca^2+ levels were measured by Fluo-4 AM (Invitrogen). Primary podocytes of the indicated genotypes were plated on 6-well plates at 1×10^5 cells/well and stained with 2.5 μM Fluo-4 AM and 1 mM probenecid in the dark at 37° C. for 30 minutes. Then the cells were washed with PBS and kept in the dark for another 30 minutes to allow cleavage of intracellular AM esters. Fluorescence was measured by flow cytometer Calibur 3 (BD Biosciences, San Jose, Calif.) at the FACS core facility of Washington University School of Medicine. The results were analyzed by Cell Quest. For measuring intracellular Ca^2+ levels in primary podocytes treated with or without […] or MANF, cells were plated on 96-well plates at 0.8×10^4 cells per well and stained with Fluo-4 AM along with probenecid to enable high-throughput readout. Fluorescence was measured at excitation wavelength 485 nm and emission wavelength 528 nm by a fluorescent plate reader Synergy H1 (BioTek, Winooski, Vt.).

The test system of another data set is primary podocytes. Nature of the data set: MTT cell viability assay. It is filed as cell-based, mouse. Conditions: 1-5 μM of K201. On the procedure: The higher apoptotic rates in all groups were most likely due to the effect of DMSO.
Isolated glomeruli from Tg-WT, Tg-C321R, and Lamb2^+/− mice at P27 were plated onto collagen type I-coated culture dishes, and cultured in 5% CO2 at 37° C. in DMEM (Gibco, NY):Ham's F-12 (Lonza, NY) (2:1) that contained 3T3-L1 supernatant, 5% heat-inactivated fetal bovine serum (Gibco), 1% Insulin-Transferrin-Selenium liquid media supplement (Gibco), and 100 U/ml penicillin-streptomycin (Gibco). After 3 days, cell colonies began to sprout around the glomeruli. […] Passage 0 podocytes from the indicated genotypes were used for RNA sequencing, and passages 1 and 2 podocytes for other in vitro studies.
For orientation: Formazan colour is commonly taken as a measure of viable cells.

A further data set concerns Lamb2+/- mice. The data set can be described thus: K201 toxicity in control mice (kidney histology, BUN). The class given is in vivo, mouse. The settings on record: K201 4 weeks vs vehicle-treated control littermates. On the procedure:
FIG. 13. […] HE staining of K201 or vehicle-injected kidneys at the end of treatment.
as §1
For light microscopy, kidneys were fixed in 4% paraformaldehyde, dehydrated through graded ethanols, embedded in paraffin, sectioned at 4 μm, and stained with Hematoxylin & Eosin (H&E) by standard methods.

The next data set has as its system Umod C147W/+ mice. Nature of the data set: DOX-induced renal tubular MANF expression in ADTKD mouse model (BUN). Conditions: DOX-induced tubular MANF from 6 to 24 weeks of age, TETMANF/+, P8TA vs Umod C147W/+. It is filed as in vivo. On the procedure:
as §1
Conditional renal tubular-specific MANF transgenic mice have been generated. TET-MANF mice were crossed with renal tubular-specific rtTA (Pax8-rtTA; P8TA) mice to generate bitransgenic TETMANF/+; P8TA mice, which were further bred to Umod C147W mice to generate Umod C147W/+; TETMANF/+; P8TA and Umod C147W/+; P8TA mice. Meanwhile, control Umod^+/+; TETMANF/+; P8TA and Umod^+/+; P8TA littermates were also generated. By administrating DOX, MANF expression was induced in renal tubules of Umod C147W/+; TETMANF/+; P8TA mice and control Umod^+/+; TETMANF/+; P8TA mice starting at 6 weeks of age until 24 weeks of age. Meanwhile, single transgenic mice including Umod C147W/+; P8TA and Umod^+/+; P8TA treated with DOX for the same duration were also included as controls.

In the next data set the target is T1, RyR2 (Mus musculus, UniProt E9Q401).
T1 construct: endogenous in cells; host or cells: mouse primary podocytes from Tg-WT and Tg-C321R mice at P27
The data set can be described thus: Western blot of p-RyR2 (S2808) and RyR in podocyte lysates. The settings on record: MANF 5 μg/ml, 24 hours, Tg-C321R podocytes. The class given is cell-based.

Another data set has as its system CHOP. Nature of the data set: Western blot of CHOP in podocyte lysates. The settings on record: MANF 5 μg/ml, 24 hours, Tg-C321R podocytes. It is filed as cell-based, mouse. On the procedure: as §2
Another data set has as its system XBP1s and ATF4. The data set can be described thus: Western blot of XBP1s and ATF4 in podocyte lysates. The class given is cell-based, mouse. The settings on record: MANF 5 μg/ml, 24 hours, Tg-C321R podocytes. On the procedure: as §2
Where [4] appears, read: recombinant MANF 24 h, Example 3.

For the molecule `C/C=C(/C)C(=O)O[C@H]1C(C)=C2[C@H]([C@@H]1OC(=O)CCCCCCC)[C@@](C)(OC(C)=O)C[C@H](OC(=O)CCC)[C@@]1(O)[C@H]2OC(=O)[C@@]1(C)O` [thapsigargin], the “SERCaMP secretion (luciferase activity in the cell culture medium)” value in data set [1] (0.1 μM thapsigargin vs DMSO, 6 hours) is given as “increased”.
In the case of `COc1ccc2c(c1)CN(C(=O)CCN1CCC(Cc3ccccc3)CC1)CCS2` [K201, 4-[-3{1-(4-Benzyl)piperidinyl}propionyl]-7-methoxy-2,3,4,5-tetrahydro-1,4-benzothiazepine], the “early apoptotic rate (Annexin V+/PI- cells)” value in data set [2] (5 μM K201, 24 hours, DMSO control 24.73±2.22%) is 15.23±2.84%. This molecule also displayed an albuminuria with Tg-C321R mice (3 weeks post-injection, vehicle 0.137±0.037) of 0.095±0.029 g/mg Cr. The molecule further gave an albuminuria in the data set with Tg-C321R mice (4 weeks post-injection, vehicle 0.142±0.022) of 0.098±0.016 g/mg Cr. For the same molecule, the “Urinary calpain activity/Cr” value in the data set with Tg-C321R mice (K201 12.5-15 mg/kg i.p. once daily vs 20% HBC, from 2 weeks to 4 weeks post-treatment) was “dramatically decreased”. In addition, the “kidney function as indicated by blood urea nitrogen (BUN)” value in the data set on Tg-C321R mice (end of 4 weeks of injection, Tg-C321R mice) is on record as “improved kidney function”. Further, the “TG-induced ER calcium depletion (SERCaMP GLuc activity in the medium)” value in [1] (0.1 μM TG + 1 μM K201, 6 hours) is on record as “abrogate TG-induced ER calcium depletion”. In the data set on procaspases 12 and 3 (5 μM K201, 24 hours), the “activation of procaspases 12 and 3” value was “abolished”. Besides, the “podocyte ER-to-cytosol calcium leak (cytosolic calcium, Fluo-4)” value in data set [3] (5 μM K201, 24 hours) is listed as “markedly blocked”. Besides, the “cell viability (MTT)” value with primary podocytes was “non-toxic”. Moreover, in the data set with Lamb2+/- mice, the “kidney histology (HE staining)” value is “no abnormality” and the “renal function as indicated by blood urea nitrogen (BUN)” value is “no abnormality”.

B1: MANF: Recombinant human MANF from R&D Systems; 18 kDa soluble ER stress inducible secreted protein (protein, UniProt P55145 25-182, looked up)
Mesencephalic …: LRPGDCEVCISYLGRFYQDLKDRDVTFSPATIENELIKFCREARGKENRLCYYIGATDDAATKIINEVSKPLAHHIPVEKICEKLKKKDSQICELKYDKQIDLSTVDLKKLRVKELKKILDDWGETCKGCAEKSDYIRKINELMPKYAPKAASARTDL
On to B1, for which the “early apoptotic rate (Annexin V+/PI-)” value in data set [2] (MANF 5 μg/ml, 24 hours, untreated 17.18±0.77%) is 10.09±0.51%. In data set [2] (setting [4]), the “early apoptosis (Annexin V+/PI- podocytes), printed as after treatment” value came to 17.27% and the “early apoptosis (Annexin V+/PI- podocytes), printed as before treatment” value was 10.73%. In addition, the “active cleaved caspase 12” value with procaspases 12 and 3 (MANF 5 μg/ml, 24 hours) is on record as “suppression”. For the same molecule, the “cytosolic calcium levels (Fluo-4)” value in data set [3] (MANF recombinant protein 5 μg/ml, 24 hours) is recorded as “significantly decreased”. For the same molecule, in the data set with Umod C147W/+ mice, the “kidney function (BUN levels)” value is listed as “improved the kidney function”. Further, the “phosphorylation of ER RyR2 (S2808)” value with RyR2 was “reduced phosphorylation”. Besides, the CHOP induction entry in the data set on CHOP was “abrogated”. Moreover, in the data set with XBP1s and ATF4, the “XBP1s and ATF4 induction” value is “inhibition”.

The record behind these values is patent publication US11129871B1, “Compositions and methods for treating and preventing endoplasmic reticulum (ER) stress-mediated kidney diseases” (Washington University, priority 2018, dated 2021).
